Data taken from ChEMBL document CHEMBL5233258, “Recent developments of gallic acid derivatives and their hybrids in medicinal chemistry: A review” (Eur J Med Chem, 2020).
Converted amounts (≈) assume the structure as drawn. One block for each molecule: values may come before it.

Assays:
[1] = Antioxidant activity assessed as DPPH radical scavenging activity measured after 30 mins; assay type: functional
[2] = Antioxidant activity assessed as DPPH radical scavenging activity; assay type: functional
[3] = Antioxidant activity assessed as ABTS radical scavenging activity; assay type: functional
[4] = Antioxidant activity assessed as DPPH radical scavenging activity measured after 30 mins by spectrophotometric analysis; assay type: functional
[5] = system: Bacillus subtilis; assay: Bactericidal activity against Bacillus subtilis ATCC 6633 by Mueller-Hinton broth method; assay type: functional
[6] = system: Bacillus subtilis; assay: Antibacterial activity against Bacillus subtilis ATCC 6633 by Mueller-Hinton broth method; assay type: functional
[7] = Inhibition of recombinant HIV-1 integrase using 32-P labeled dBY-1 as substrate assessed as disintegration of substrate incubated for 1 hrs; design: species or system Human immunodeficiency virus 1
[8] = system: Escherichia coli; assay: Antibacterial activity against Escherichia coli assessed as zone of inhibition incubated for 24 hrs by agar diffusion method; assay type: functional
[9] = system: MCF7; assay: Anticancer activity against human MCF7 cells assessed as inhibition of cell growth incubated for 24 hrs by MTT assay; assay type: functional, cell-based; settings: MCF7, 24 h
[10] = system: Pseudomonas aeruginosa; assay: Antibacterial activity against Pseudomonas aeruginosa assessed as zone of inhibition incubated for 24 hrs by agar diffusion method; assay type: functional

Structure (SMILES): O=C1O[C@H]([C@@H](O)CO)C(O)=C1O [ASCORBIC ACID]
IC50 [2]: 18 µM | IC50 [3]: 30.1 µM | IC50 [4]: 981 µM | IC50 [1]: 2.26 µg/mL (≈ 12.8 µM)

Structure (SMILES): CCCCCCCCCC[N+](C)(C)CCO
MBC [5]: 1200 µM | MIC [6]: 1200 µM

Structure (SMILES): CCCCCCCCCC[N+]1(C)CCCCC1
MBC [5]: 1000 µM | MIC [6]: 1000 µM

Structure (SMILES): O=C(O)c1cc(OCCNC(=O)c2cc(OCCNC(=O)c3cc(OCNC(=O)c4cc(O)c(O)c(O)c4)cc(OCNC(=O)c4cc(O)c(O)c(O)c4)c3)cc(OCCNC(=O)c3cc(OCNC(=O)c4cc(O)c(O)c(O)c4)cc(OCNC(=O)c4cc(O)c(O)c(O)c4)c3)c2)cc(OCCNC(=O)c2ccc(OCCNC(=O)c3cc(OCNC(=O)c4cc(O)c(O)c(O)c4)cc(OCNC(=O)c4cc(O)c(O)c(O)c4)c3)c(OCCNC(=O)c3cc(OCNC(=O)c4cc(O)c(O)c(O)c4)cc(OCNC(=O)c4cc(O)c(O)c(O)c4)c3)c2)c1
ED50 [2]: 4.7 µM

Structure (SMILES): COC1=CC(=O)C[C@@H](C)[C@]12Oc1c(Cl)c(OC)cc(OC)c1C2=O [GRISEOFULVIN]
inhibition zone (IZ) [8]: 22 mm

Structure (SMILES): COc1ccc(/C=C\c2cc(OC)c(OC)c(OC)c2)cc1O [COMBRETASTATIN A4]
IC50 [9]: 0.01 µM

Structure (SMILES): COc1cc(C(=O)N/N=C/c2c(CO)cnc(C)c2O)cc(OC)c1OC
inhibition zone (IZ) [8]: 17 mm | inhibition zone (IZ) [10]: 17 mm

Structure (SMILES): COc1cc(C(=O)N/N=C/c2cc3ccccc3[nH]2)cc(OC)c1OC
inhibition zone (IZ) [8]: 17 mm | inhibition zone (IZ) [10]: 17 mm

Structure (SMILES): Oc1cc(-c2nnc(CC(O)(Cc3nnc(-c4cc(O)c(O)c(O)c4)o3)c3nnco3)o2)cc(O)c1O
IC50 [2]: 16 µM | IC50 [3]: 125 µM

Structure (SMILES): CCCCCCCCCCCC[N+](C)(C)CCOCCO
MBC [5]: 2400 µM | IC50 [4]: 4820 µM | MIC [6]: 2400 µM

Structure (SMILES): CC1(C)S[C@@H]2[C@H](NC(=O)[C@H](N)c3ccccc3)C(=O)N2[C@H]1C(=O)O [AMPICILLIN]
inhibition zone (IZ) [8]: 15 mm | inhibition zone (IZ) [10]: 15 mm

Structure (SMILES): CCCCCCCCCCCC[N+](C)(C)CC(=O)O
MBC [5]: 1100 µM | IC50 [4]: 4690 µM | MIC [6]: 1100 µM

Structure (SMILES): COc1cc(C(=O)NN=Cc2nc(-c3ccccc3)c[nH]2)cc(OC)c1OC
inhibition zone (IZ) [8]: 17 mm | inhibition zone (IZ) [10]: 17 mm

Structure (SMILES): COc1cc([C@@H]2c3cc4c(cc3[C@H](O)[C@H]3COC(=O)[C@H]23)OCO4)cc(OC)c1OC [PODOFILOX]
IC50 [9]: 65 µM

Structure (SMILES): COc1cc(C(=O)N/N=C/c2ccnc3ccccc23)cc(OC)c1OC
inhibition zone (IZ) [8]: 17 mm | inhibition zone (IZ) [10]: 17 mm

Structure (SMILES): COc1cc(C(=O)N/N=C/c2ccc(-c3ccccn3)cc2)cc(OC)c1OC
inhibition zone (IZ) [8]: 17 mm | inhibition zone (IZ) [10]: 17 mm

Continued, values first:

IC50 [1]: 1.14 µg/mL (≈ 2.99 µM)
Structure (SMILES): C/C(=N/NC(=O)c1cc(O)c(O)c(O)c1)c1cc(Br)ccc1O

IC50 [2]: 14.8 µM | IC50 [3]: 24.7 µM
Structure (SMILES): Oc1cc(-c2nnc(Cc3nnc(-c4cc(O)c(O)c(O)c4)o3)o2)cc(O)c1O

IC50 [7]: 35.2 µM
Structure (SMILES): Cc1nnc(C(=O)NC(C)(C)c2nc(C(=O)NCc3ccc(F)cc3)c(O)c(=O)n2C)o1 [RALTEGRAVIR]

IC50 [2]: 14.6 µM | IC50 [3]: 24.4 µM
Structure (SMILES): CSc1nnc(C(=O)c2cc(O)c(O)c(O)c2)o1

IC50 [7]: > 100 µM
Structure (SMILES): COc1cc2c(cc1Cc1cccc(Cl)c1F)c(=O)c(C(=O)O)cn2[C@H](CO)C(C)C [ELVITEGRAVIR]

IC50 [1]: 1.14 µg/mL (≈ 3.97 µM)
Structure (SMILES): C/C(=N/NC(=O)c1cc(O)c(O)c(O)c1)c1ccccn1

IC50 [1]: 1.14 µg/mL (≈ 3.43 µM)
Structure (SMILES): COc1ccc(O)c(/C(C)=N\NC(=O)c2cc(O)c(O)c(O)c2)c1

IC50 [2]: 30.6 µM
Structure (SMILES): Cc1c(C)c2c(c(C)c1O)CCC(C)(C(=O)O)O2 (stereo unspecified) [TROLOX]

IC50 [4]: 911 µM
Structure (SMILES): Cc1c(C)c2c(c(C)c1O)CC[C@@](C)(CCC[C@H](C)CCC[C@H](C)CCCC(C)C)O2 [ALPHA-TOCOPHEROL]

IC50 [9]: 7.5 µM
Structure (SMILES): COc1cc(/C=C\c2cc3c(cc2OC(C)=O)CC[C@@H]2[C@@H]3CC[C@]3(C)[C@@H](OC(C)=O)CC[C@@H]23)cc(OC)c1OC

IC50 [9]: 9 µM
Structure (SMILES): CC/C(=C(\c1ccccc1)c1ccc(OCCN(C)C)cc1)c1ccccc1 [TAMOXIFEN]

IC50 [1]: 1.14 µg/mL (≈ 3.39 µM)
Structure (SMILES): C/C(=N/NC(=O)c1cc(O)c(O)c(O)c1)c1cc(Cl)ccc1O
